Format in all cases: functional
Assay [1] deals with Haemophilus influenzae. Briefly: Antibacterial activity against Haemophilus influenzae 2762.
Assay [2] deals with Staphylococcus aureus. Description: Antibacterial activity against Staphylococcus aureus 29213.
Assay [3] relates to Staphylococcus aureus. Description: Antibacterial activity against Staphylococcus aureus 33591.
Assay [4] relates to Staphylococcus epidermidis. Briefly: Antibacterial activity against Staphylococcus epidermidis 14990.
In assay [5] the test system is Staphylococcus epidermidis. Description: Antibacterial activity against Staphylococcus epidermidis f50654.
For assay [6], the system named is Enterococcus faecalis. Description: Antibacterial activity against Enterococcus faecalis 29212.
For assay [7], the system named is Enterococcus faecalis. Description: Antibacterial activity against Enterococcus faecalis bc11148-2.
For a further assay, the system named is Streptococcus pyogenes. Description: Antibacterial activity against Streptococcus pyogenes 8668.
The test system of assay [8] is Streptococcus pneumoniae. Description: Antibacterial activity against Streptococcus pneumoniae 49619.
In assay [9] the test system is Streptococcus pneumoniae. Description: Antibacterial activity against Streptococcus pneumoniae 297-749.
The test system of assay [10] is Streptococcus pneumoniae. Description: Antibacterial activity against Streptococcus pneumoniae 280-962.
Assay [11] deals with Streptococcus pneumoniae. Description: Antibacterial activity against Streptococcus pneumoniae Erm 6849.
Assay [12] deals with Streptococcus pneumoniae. Briefly: Antibacterial activity against Streptococcus pneumoniae Mef 5654.
Assay [13] has as its system Streptococcus pneumoniae. Description: Antibacterial activity against Streptococcus pneumoniae Mef S 3427.
The test system of assay [14] is Haemophilus influenzae. Briefly: Antibacterial activity against Haemophilus influenzae 49247.

We go through 6 molecules from ChEMBL document CHEMBL1138190, “Synthesis and antibacterial activity of novel C12 vinyl ketolides” (J Med Chem, 2006).

In brackets after ≈: the same amount, converted by molar mass.

In the case of `C=C[C@]12OC(=O)N(CCCCn3cnc(-c4cnc(C)cn4)c3)[C@@H]1[C@@H](C)C(=O)[C@H](C)C[C@@](C)(OC)[C@H](O[C@@H]1O[C@H](C)C[C@H](N(C)C)[C@H]1O)[C@@H](C)C(=O)[C@@H](C)C(=O)O[C@@H]2CC`, the MIC is 0.78 µg/mL (≈ 0.93 µM) in the assay with Haemophilus influenzae [1]; 0.1 µg/mL (≈ 0.119 µM) in the assay on Staphylococcus aureus [2]; above 50 µg/mL with Staphylococcus aureus [3]; 0.2 µg/mL (≈ 0.238 µM) in assay [4]; 0.1 µg/mL (≈ 0.119 µM) in [5]; 0.1 µg/mL (≈ 0.119 µM) against Enterococcus faecalis [6]. For the same molecule, the MIC in the assay with Enterococcus faecalis [7] was 0.78 µg/mL (≈ 0.93 µM); with Streptococcus pyogenes it was at most 0.05 µg/mL; in the assay on Streptococcus pneumoniae [8], at most 0.05 µg/mL; with Streptococcus pneumoniae [9] it was at most 0.05 µg/mL; in the assay on Streptococcus pneumoniae [10], at most 0.05 µg/mL; against Streptococcus pneumoniae [11], 0.2 µg/mL (≈ 0.238 µM). Besides, the MIC in the assay with Streptococcus pneumoniae [12] was found to be 0.78 µg/mL (≈ 0.93 µM); in the assay on Streptococcus pneumoniae [13], 0.2 µg/mL (≈ 0.238 µM); against Haemophilus influenzae [14] it was 3.13 µg/mL (≈ 3.73 µM).

Turning to `CC[C@H]1OC(=O)[C@H](C)[C@@H](O[C@H]2C[C@@](C)(OC)[C@@H](O)[C@H](C)O2)[C@H](C)[C@@H](O[C@@H]2O[C@H](C)C[C@H](N(C)C)[C@H]2O)[C@](C)(OC)C[C@@H](C)C(=O)[C@H](C)[C@@H](O)[C@]1(C)O` [CLARITHROMYCIN], the MIC against Haemophilus influenzae [1] was 0.78 µg/mL (≈ 1.04 µM); against Staphylococcus aureus [2] it was 0.4 µg/mL (≈ 0.535 µM); in the assay with Staphylococcus aureus [3] it was above 50 µg/mL; in [4], 0.2 µg/mL (≈ 0.267 µM); in assay [5], 0.2 µg/mL (≈ 0.267 µM); with Enterococcus faecalis [6], 0.78 µg/mL (≈ 1.04 µM). For the same molecule, the MIC in the assay on Enterococcus faecalis [7] is above 50 µg/mL; in the assay with Streptococcus pyogenes, at most 0.05 µg/mL; against Streptococcus pneumoniae [8], at most 0.05 µg/mL; in the assay on Streptococcus pneumoniae [9], at most 0.05 µg/mL; against Streptococcus pneumoniae [10] it was at most 0.05 µg/mL; in the assay with Streptococcus pneumoniae [11] it was above 50 µg/mL. For the same molecule, the MIC stood at 6.25 µg/mL (≈ 8.36 µM) against Streptococcus pneumoniae [12], 3.13 µg/mL (≈ 4.18 µM) with Streptococcus pneumoniae [13] and 6.25 µg/mL (≈ 8.36 µM) in the assay with Haemophilus influenzae [14].

In the case of `C=C[C@]12OC(=O)N(CCN(C)Cc3ccnc(-c4cccnc4)c3)[C@@H]1[C@@H](C)C(=O)[C@H](C)C[C@@](C)(OC)[C@H](O[C@@H]1O[C@H](C)C[C@H](N(C)C)[C@H]1O)[C@@H](C)C(=O)[C@@H](C)C(=O)O[C@@H]2CC`, the MIC with Haemophilus influenzae [1] was 3.13 µg/mL (≈ 3.68 µM); with Staphylococcus aureus [2], 0.2 µg/mL (≈ 0.235 µM); against Staphylococcus aureus [3], above 50 µg/mL; in assay [4] it was 0.2 µg/mL (≈ 0.235 µM); in assay [5], 0.2 µg/mL (≈ 0.235 µM); against Enterococcus faecalis [6] it was 0.1 µg/mL (≈ 0.118 µM). Besides, the MIC against Enterococcus faecalis [7] is 0.2 µg/mL (≈ 0.235 µM); in the assay with Streptococcus pyogenes, at most 0.05 µg/mL; in the assay on Streptococcus pneumoniae [8], at most 0.05 µg/mL; in the assay on Streptococcus pneumoniae [9], at most 0.05 µg/mL; in the assay with Streptococcus pneumoniae [10], at most 0.05 µg/mL; with Streptococcus pneumoniae [11], at most 0.05 µg/mL. The values for the MIC with Streptococcus pneumoniae [12], with Streptococcus pneumoniae [13] and in the assay with Haemophilus influenzae [14] were 0.4 µg/mL (≈ 0.471 µM), 0.1 µg/mL (≈ 0.118 µM) and 6.25 µg/mL (≈ 7.35 µM), respectively.

For the molecule `C=C[C@]12OC(=O)N(CCCCn3cnc(-c4cnc(OC)nc4)c3)[C@@H]1[C@@H](C)C(=O)[C@H](C)C[C@@](C)(OC)[C@H](O[C@@H]1O[C@H](C)C[C@H](N(C)C)[C@H]1O)[C@@H](C)C(=O)[C@@H](C)C(=O)O[C@@H]2CC`, the MIC against Haemophilus influenzae [1] is 0.78 µg/mL (≈ 0.912 µM); with Staphylococcus aureus [2], 0.1 µg/mL (≈ 0.117 µM); in the assay on Staphylococcus aureus [3], above 50 µg/mL; in assay [4], 0.1 µg/mL (≈ 0.117 µM); in [5] it was 0.1 µg/mL (≈ 0.117 µM); in the assay on Enterococcus faecalis [6] it was at most 0.05 µg/mL. Besides, the MIC is 0.4 µg/mL (≈ 0.468 µM) with Enterococcus faecalis [7]; at most 0.05 µg/mL against Streptococcus pyogenes; at most 0.05 µg/mL with Streptococcus pneumoniae [8]; at most 0.05 µg/mL against Streptococcus pneumoniae [9]; at most 0.05 µg/mL against Streptococcus pneumoniae [10]; 0.4 µg/mL (≈ 0.468 µM) against Streptococcus pneumoniae [11]. In addition, the MIC is 0.78 µg/mL (≈ 0.912 µM) with Streptococcus pneumoniae [12], 0.2 µg/mL (≈ 0.234 µM) against Streptococcus pneumoniae [13] and 6.25 µg/mL (≈ 7.31 µM) with Haemophilus influenzae [14].

For the molecule `C=C[C@]12OC(=O)N(CCN(C)Cc3cnc(-c4cccnc4)s3)[C@@H]1[C@@H](C)C(=O)[C@H](C)C[C@@](C)(OC)[C@H](O[C@@H]1O[C@H](C)C[C@H](N(C)C)[C@H]1O)[C@@H](C)C(=O)[C@@H](C)C(=O)O[C@@H]2CC`, the MIC against Haemophilus influenzae [1] was 3.13 µg/mL (≈ 3.66 µM); in the assay on Staphylococcus aureus [2], 0.1 µg/mL (≈ 0.117 µM); in the assay on Staphylococcus aureus [3], above 50 µg/mL; in [4] it was 0.1 µg/mL (≈ 0.117 µM); in assay [5] it was 0.1 µg/mL (≈ 0.117 µM); in the assay on Enterococcus faecalis [6], 0.1 µg/mL (≈ 0.117 µM). The MIC in the assay with Enterococcus faecalis [7] is 0.4 µg/mL (≈ 0.467 µM); in the assay on Streptococcus pyogenes, at most 0.05 µg/mL; in the assay on Streptococcus pneumoniae [8], at most 0.05 µg/mL; in the assay with Streptococcus pneumoniae [9], at most 0.05 µg/mL; against Streptococcus pneumoniae [10], at most 0.05 µg/mL; against Streptococcus pneumoniae [11] it was 0.78 µg/mL (≈ 0.911 µM). The values for the MIC in the assay with Streptococcus pneumoniae [12], with Streptococcus pneumoniae [13] and with Haemophilus influenzae [14] were 0.4 µg/mL (≈ 0.467 µM), 0.1 µg/mL (≈ 0.117 µM) and 12.5 µg/mL (≈ 14.6 µM), respectively.

Take `C=C[C@]12OC(=O)N(CCCCn3cnc4cccnc43)[C@@H]1[C@@H](C)C(=O)[C@H](C)C[C@@](C)(OC)[C@H](O[C@@H]1O[C@H](C)C[C@H](N(C)C)[C@H]1O)[C@@H](C)C(=O)[C@@H](C)C(=O)O[C@@H]2CC`: the MIC against Haemophilus influenzae [1] is 0.78 µg/mL (≈ 0.977 µM); against Staphylococcus aureus [2] it was 0.2 µg/mL (≈ 0.251 µM); against Staphylococcus aureus [3], above 50 µg/mL; in [4], 0.1 µg/mL (≈ 0.125 µM); in assay [5], 0.2 µg/mL (≈ 0.251 µM); in the assay with Enterococcus faecalis [6], 0.1 µg/mL (≈ 0.125 µM). For the same molecule, the MIC against Enterococcus faecalis [7] was 0.78 µg/mL (≈ 0.977 µM); in the assay with Streptococcus pyogenes it was at most 0.05 µg/mL; against Streptococcus pneumoniae [8] it was at most 0.05 µg/mL; in the assay on Streptococcus pneumoniae [9], at most 0.05 µg/mL; against Streptococcus pneumoniae [10] it was at most 0.05 µg/mL; with Streptococcus pneumoniae [11] it was 12.5 µg/mL (≈ 15.7 µM). Moreover, the MIC was 0.78 µg/mL (≈ 0.977 µM) with Streptococcus pneumoniae [12], 0.1 µg/mL (≈ 0.125 µM) in the assay on Streptococcus pneumoniae [13] and 1.56 µg/mL (≈ 1.95 µM) against Haemophilus influenzae [14].
